According to the NIST ThermoML archive (doi:10.1021/je900407u):
± gives the expanded uncertainty stated by the source.

Test: isobaric coefficient of expansion
Conditions: Liquid, Micro DSCII

CCCCn1cc[n+](C)c1.[F][Sb-]([F])([F])([F])([F])[F] [1-butyl-3-methylimidazolium hexafluoroantimonate]
isobaric coefficient of expansion
Conditions | 5000 kPa | 10000 kPa | 15000 kPa | 20000 kPa | 25000 kPa | 30000 kPa | 35000 kPa | 40000 kPa | 45000 kPa | 50000 kPa
278.15 K | 0.000636 ± 1.6e-05 1/K | 0.000627 ± 1.5e-05 1/K | 0.000619 ± 1.5e-05 1/K | 0.000614 ± 1.5e-05 1/K | 0.000607 ± 1.5e-05 1/K | 0.0006 ± 1.5e-05 1/K | 0.000593 ± 1.5e-05 1/K | 0.000589 ± 1.4e-05 1/K | 0.000582 ± 1.4e-05 1/K | 0.000575 ± 1.4e-05 1/K
288.15 K | 0.00063 ± 1.5e-05 1/K | 0.000621 ± 1.5e-05 1/K | 0.000614 ± 1.5e-05 1/K | 0.000609 ± 1.5e-05 1/K | 0.000603 ± 1.5e-05 1/K | 0.000596 ± 1.5e-05 1/K | 0.000589 ± 1.4e-05 1/K | 0.000582 ± 1.4e-05 1/K | 0.000575 ± 1.4e-05 1/K | 0.000573 ± 1.4e-05 1/K
298.15 K | 0.000624 ± 1.5e-05 1/K | 0.000619 ± 1.5e-05 1/K | 0.000609 ± 1.5e-05 1/K | 0.000602 ± 1.5e-05 1/K | 0.000597 ± 1.5e-05 1/K | 0.000588 ± 1.4e-05 1/K | 0.000581 ± 1.4e-05 1/K | 0.000576 ± 1.4e-05 1/K | 0.000571 ± 1.4e-05 1/K | 0.000566 ± 1.4e-05 1/K
308.15 K | 0.00062 ± 1.5e-05 1/K | 0.00061 ± 1.5e-05 1/K | 0.000604 ± 1.5e-05 1/K | 0.000596 ± 1.5e-05 1/K | 0.000589 ± 1.4e-05 1/K | 0.000583 ± 1.4e-05 1/K | 0.000576 ± 1.4e-05 1/K | 0.000571 ± 1.4e-05 1/K | 0.000563 ± 1.4e-05 1/K | 0.000558 ± 1.4e-05 1/K
318.15 K | 0.000612 ± 1.5e-05 1/K | 0.000609 ± 1.5e-05 1/K | 0.000599 ± 1.5e-05 1/K | 0.000591 ± 1.4e-05 1/K | 0.000584 ± 1.4e-05 1/K | 0.000577 ± 1.4e-05 1/K | 0.00057 ± 1.4e-05 1/K | 0.000564 ± 1.4e-05 1/K | 0.000557 ± 1.4e-05 1/K | 0.00055 ± 1.3e-05 1/K
328.15 K | 0.000609 ± 1.5e-05 1/K | 0.000601 ± 1.5e-05 1/K | 0.000595 ± 1.5e-05 1/K | 0.000589 ± 1.4e-05 1/K | 0.00058 ± 1.4e-05 1/K | 0.000573 ± 1.4e-05 1/K | 0.000566 ± 1.4e-05 1/K | 0.000559 ± 1.4e-05 1/K | 0.000553 ± 1.4e-05 1/K | 0.000547 ± 1.3e-05 1/K
338.15 K | 0.000607 ± 1.5e-05 1/K | 0.000599 ± 1.5e-05 1/K | 0.000593 ± 1.5e-05 1/K | 0.000585 ± 1.4e-05 1/K | 0.000575 ± 1.4e-05 1/K | 0.000569 ± 1.4e-05 1/K | 0.000563 ± 1.4e-05 1/K | 0.000556 ± 1.4e-05 1/K | 0.000549 ± 1.3e-05 1/K | 0.000545 ± 1.3e-05 1/K
348.15 K | 0.000602 ± 1.5e-05 1/K | 0.000597 ± 1.5e-05 1/K | 0.000588 ± 1.4e-05 1/K | 0.000579 ± 1.4e-05 1/K | 0.000574 ± 1.4e-05 1/K | 0.000567 ± 1.4e-05 1/K | 0.000562 ± 1.4e-05 1/K | 0.000555 ± 1.4e-05 1/K | 0.000549 ± 1.3e-05 1/K | 0.000542 ± 1.3e-05 1/K
